Measurements as given in US7157408B2, “Quinoline fungicides” (Valent BioSciences Corporation, priority 2004, dated 2007).

Columns and labels:
Botrytis cinerea [1] = assay: Contact evaluation (microtiter plate); format: cell-based
Procedure: (§1) Compound solution: Contact evaluations were conducted to determine the anti-fungal activity of each compound against Botrytis cinerea, Sclerotinia sclerotiorum, Pythium aphanidermatum, Rhizoctonia solani, Cercospora arachidicola, Mycosphaerella fjiensis, and Monilinia laxa. Five milligrams of each compound were dissolved in 0.5 milliliter of DMSO for a compound stock solution of 1.0% w/v. Compound stock solutions were serial diluted with DMSO to 20, 10, and 2 ppm final well concentration. Fungi preparation: Botrytis cinerea spores were taken from 6-week-old cultures grown at 22C on full strength potato dextrous agar (PDA) plates. Sclerotinia sclerotiorum, Pythium aphanidermatum, Rhizoctonia solani, and Monilinia laxa mycelia were taken from 4- to 10-day-old shake flask cultures grown at room temperature on full strength potato dextrous broth (PDB). Cercospora arachidicola mycelia were taken from 10- to 14-day-old shake flask cultures grown at room temperature on a full strength PDB amended with peanut oil. Mycosphaerella fijiensis mycelia were taken from 10- to 14-day-old shake flask cultures grown at room temperature on V8 juice broth. Sclerotinia sclerotiorum, Pythium aphanidermatum, Rhizoctonia solani, Cercospora arachidicola, and Mycosphaerella fijiensis mycelia (0.4 g mycelia) were blended for 45 seconds in 20 mL sterile de-ionized water. Monilinia laxa mycelia (1 g mycelia) was blended for 45 seconds in 30 mL of sterile de-ionized water. Botrytis cinerea spores were diluted with quarter strength PDB to 1×10^5 spores/mL final well concentration. All mycelia were diluted in water (1:5 mycelia:water) before distributing into the wells. Microtiter plate preparation: Compound solution (10 :L), quarter strength PDB (900 :L) and fungi preparation (100 :L) were sequentially distributed into 48-well microtiter plates (n=3 replications/compound/rate). A blank consisted of quarter strength PDB and fungi preparation. Commercial fungicide controls (100 ppm diluted with water) consisted of Scala for Botrytis cinerea, Dithane F-45 for Mycosphaerella fijiensis, and Benlate for Sclerotinia sclerotiorum, Pythium aphanidermatum, Rhizoctonia solani, Cercospora arachidicola, and Monilinia laxa. Plates were shaken in a circular rotator at room temperature for 20 minutes, then incubated at 25C for 24 to 72 hours, depending on the pathogen. Fungal control ratings: Fungal growth in wells containing the compounds were compared to the positive control and fungal inhibition was rated as full, partial, or none. Final readings were the average of the three wells (Table 1).

Cercospora arachidicola = assay: Contact evaluation (microtiter plate); format: cell-based
Procedure: as §1

Monilinia laxa = assay: Contact evaluation (microtiter plate); format: cell-based
Procedure: as §1

Mycosphaerella fijiensis = assay: Contact evaluation (microtiter plate); format: cell-based
Procedure: as §1

Pythium aphanidermatum = assay: Contact evaluation (microtiter plate); format: cell-based
Procedure: as §1

Rhizoctonia solani = assay: Contact evaluation (microtiter plate); format: cell-based; conditions: Rhizoctinia solani
Procedure: as §1

Sclerotinia sclerotiorum = assay: Contact evaluation (microtiter plate); format: cell-based; conditions: Sclerotinia sclerotionum
Procedure: as §1

Botrytis cinerea [2] = assay: Detached bean leaf bioassay, fungal control; format: in vivo; conditions: 200 ppm, three days after inoculation, 100 minus percent necrotic area
Procedure: Compound solution: Compound solutions were prepared by diluting compound stock solutions (1.0% w/v compound in DMSO) to 200 ppm with 0.01% w/v Triton X-100. Spore solution preparation: Botrytis cinerea spores were taken from 6-week-old cultures grown at 22C on full strength potato dextrous agar (PDA) plates and harvested in 1:16 frozen orange juice concentrate:water. Botrytis cinerea spore solutions were prepared by diluting spore cultures to 5×10^4 spores/mL with 1:16 frozen orange juice concentrate:water. Plant material: Middle trifoliate leaves of greenhouse grown Phaseolus vulgaris (Bush bean cv. Blue Lake 274) were excised and placed on a plastic grid above a tray containing moist towels. Treatment method: One half of the adaxial surface of the leaf was treated with the compound solution (100 :L) using a 3 cm Bacti Cell Spreader. A blank consisted of 0.01% w/v Triton X-100. A commercial fungicide control (200 ppm diluted with water) consisted of Scala. […] Fungal control rating: Three days after inoculation with Botrytis, the percent necrotic area under the inoculation droplet was determined. Since the areas under the blank (0.01% w/v Triton X-100) were 100% infected, fungal control was expressed as 100 minus the percent necrotic area, and thus 0% infected is 100% fungal control (n=3 leaves/compound, 5 inoculation droplets/leaf, Table 2).

[3] = system: Phaseolus vulgaris (Bush bean cv. Blue Lake 274) leaves; assay: Detached bean leaf bioassay, phytotoxicity rating; format: in vivo; conditions: 200 ppm, scale 0=no, 1=slight, 2=moderate, 3=excessive phytotoxicity
Procedure: Compound solution: Compound solutions were prepared by diluting compound stock solutions (1.0% w/v compound in DMSO) to 200 ppm with 0.01% w/v Triton X-100. Plant material: Middle trifoliate leaves of greenhouse grown Phaseolus vulgaris (Bush bean cv. Blue Lake 274) were excised and placed on a plastic grid above a tray containing moist towels. Treatment method: One half of the adaxial surface of the leaf was treated with the compound solution (100 :L) using a 3 cm Bacti Cell Spreader. A blank consisted of 0.01% w/v Triton X-100. A commercial fungicide control (200 ppm diluted with water) consisted of Scala. After the solutions dried, the trays containing the leaves were covered and held one day in a growth chamber (22C). The adaxial surfaces of the leaves were then inoculated with 5–60 :L droplets of Botrytis cinerea spore solution. Phytotoxicity ratings: Phytotoxicity was rated as 0=no phytotoxicity, 1=slight phytotoxicity, 2=moderate phytotoxicity, or 3=excessive phytotoxicity (Table 2).

melting point: 128 to 131 °C
SMILES: OCCc1c(Br)cc(Br)c2cccnc12 [Example 1, 5,7-dibromo-8-(2-hydroxyethyl)quinoline]
Control of fungi (full, partial, none) (Botrytis cinerea [1]; fungicide rate 2 ppm): Partial
Control of fungi (full, partial, none) (Botrytis cinerea [1]; fungicide rate 10 ppm): Full
Control of fungi (full, partial, none) (Botrytis cinerea [1]; fungicide rate 20 ppm): Full
Control of fungi (full, partial, none) (Cercospora arachidicola; fungicide rate 2 ppm): None
Control of fungi (full, partial, none) (Cercospora arachidicola; fungicide rate 10 ppm): Full
Control of fungi (full, partial, none) (Cercospora arachidicola; fungicide rate 20 ppm): Full
Control of fungi (full, partial, none) (Monilinia laxa; fungicide rate 2 ppm): Full
Control of fungi (full, partial, none) (Monilinia laxa; fungicide rate 10 ppm): Full
Control of fungi (full, partial, none) (Monilinia laxa; fungicide rate 20 ppm): Full
Control of fungi (full, partial, none) (Mycosphaerella fijiensis; fungicide rate 2 ppm): Full
Control of fungi (full, partial, none) (Mycosphaerella fijiensis; fungicide rate 10 ppm): Full
Control of fungi (full, partial, none) (Mycosphaerella fijiensis; fungicide rate 20 ppm): Full
Control of fungi (full, partial, none) (Pythium aphanidermatum; fungicide rate 2 ppm): Full
Control of fungi (full, partial, none) (Pythium aphanidermatum; fungicide rate 10 ppm): Full
Control of fungi (full, partial, none) (Pythium aphanidermatum; fungicide rate 20 ppm): Full
Control of fungi (full, partial, none) (Rhizoctonia solani; fungicide rate 2 ppm): Full
Control of fungi (full, partial, none) (Rhizoctonia solani; fungicide rate 10 ppm): Full
Control of fungi (full, partial, none) (Rhizoctonia solani; fungicide rate 20 ppm): Full
Control of fungi (full, partial, none) (Sclerotinia sclerotiorum; fungicide rate 2 ppm): Full
Control of fungi (full, partial, none) (Sclerotinia sclerotiorum; fungicide rate 10 ppm): Full
Control of fungi (full, partial, none) (Sclerotinia sclerotiorum; fungicide rate 20 ppm): Full
Botrytis cinerea control (Botrytis cinerea [2]): 100%
Phytotoxity [3]: Slight
